Laboratory results published in US11466013B2 (Betta Pharmaceuticals Co., LTD, priority 2018, dated 2022).

Columns and labels:
COLO205 cells = test: Cell proliferation assay (COLO205), Cell-titer Glo; assay type: cell-based; details: Homo sapiens, COLO 205, 120 h incubation
Description: COLO205 cells were spread into a 96-well plate at 135 μL/well at 2000 cells. After incubating overnight, compound solutions of gradient concentration was prepared, and added 15 μL of DMSO solution of the test compound of each concentration to the cells of each well. The final concentration of the compound was 30000, 10000, 3333.3, 1111.1, 370.4, 123.5, 41.2, 13.7, 4.6, 0 nM (the final concentration of DMSO was 0.5%). 5% CO2 was incubated for 120 h at 37° C. 50 μL of Cell-titer Glo working solution was added to each well, shaked and mixed, and incubated at room temperature for 10 minutes. The multi-functional microplate reader read the luminescence value, and converted the luminescence value reading into inhibition percentage. Inhibition percentage=(maximum value−reading)/(maximum value−minimum value)*100.
The “maximum value” was the DMSO control, the “minimum value” indicates the cell-free control group.
(§1) Graphpad Prism software was used to perform curve fitting and obtain IC50 value.

ERK1 = ERK1 (Homo sapiens, UniProt P27361); test: Kinase assay (Caliper, FAM-labeled peptide), ERK1; assay type: biochemical
Description: (§2) The compound was diluted to the desired concentration with DMSO, transferred 100 μL to a 96-well plate, and performed a gradient dilution 10 μL of compound from each well was taken and mixed with 90 μL of kinase buffer, and then transferred 5 μL from each well to a 384-well plate. Kinase and FAM-labeled peptide and ATP were added to 1× kinase alkaline buffer to obtain 2.5× enzyme solution and 2.5× peptide solution, 10 μL of 2.5× enzyme solution was added to the 384-well assay plate. After incubating for 10 minutes at room temperature, 10 μL of 2.5× peptide solution was added to the 384-well plate. After reacting for a specific time at […], 25 μL of termination buffer was added to stop reaction. After reading the collected data on Caliper, the data was converted to inhibition percentage. Inhibition percentage=(maximum value−conversion value)/(maximum value−minimum value)*100.
(§3) The “maximum” is the DMSO control, the “minimum” indicates the low control.
as §1

ERK2 = ERK2 (Homo sapiens, UniProt P28482); test: Kinase assay (Caliper, FAM-labeled peptide), ERK2; assay type: biochemical
Description: as §2, §3, §1

Chain of ERK2 (P28482 whole entry): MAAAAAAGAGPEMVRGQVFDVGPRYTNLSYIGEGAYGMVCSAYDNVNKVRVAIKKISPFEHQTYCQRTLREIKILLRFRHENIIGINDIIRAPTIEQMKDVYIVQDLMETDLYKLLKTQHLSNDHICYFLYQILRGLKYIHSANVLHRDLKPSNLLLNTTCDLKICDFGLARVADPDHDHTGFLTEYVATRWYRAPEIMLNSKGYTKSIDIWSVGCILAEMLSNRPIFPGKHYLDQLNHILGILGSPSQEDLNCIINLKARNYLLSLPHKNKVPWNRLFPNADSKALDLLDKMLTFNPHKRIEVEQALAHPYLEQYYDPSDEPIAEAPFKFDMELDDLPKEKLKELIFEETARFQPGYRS
Chain of ERK1 (P27361 whole entry): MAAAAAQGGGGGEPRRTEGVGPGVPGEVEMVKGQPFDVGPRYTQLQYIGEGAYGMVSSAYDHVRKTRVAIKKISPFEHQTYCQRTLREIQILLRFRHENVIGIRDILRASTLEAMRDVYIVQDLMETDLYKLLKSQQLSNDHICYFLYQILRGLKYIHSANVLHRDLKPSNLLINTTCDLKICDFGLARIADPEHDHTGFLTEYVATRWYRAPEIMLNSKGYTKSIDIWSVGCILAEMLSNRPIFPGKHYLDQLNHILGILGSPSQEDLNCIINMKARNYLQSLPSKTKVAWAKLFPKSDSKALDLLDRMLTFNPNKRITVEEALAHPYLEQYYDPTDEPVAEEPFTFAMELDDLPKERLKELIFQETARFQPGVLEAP

Row | Structure (SMILES) | IC50 (COLO205 cells) | IC50 (ERK1) | IC50 (ERK2)
1 | Cc1cnc(Nc2ccnn2C)nc1-c1cc2n(c1)CCN(Cc1cccc(F)c1)C2=O [Example D5, 2-(3-fluorobenzyl)-7-(5-methyl-2-((1-methyl-1h-pyrazole-5-yl)amino)pyrimidin-4-yl)-3,4-dihydropyrrolo[1,2-a] pyrazine-1(2H)-one, reference compound] | 93.7 nM |  | 
2 | Cc1cnc(Nc2ccnn2C)nc1-c1c[nH]c(C(=O)NCc2cccc(F)c2)c1 [Example D4, N-(3-fluorobenzyl)-4-(5-methyl-2-((1-methyl-1h-pyrazole-5-yl)amino)pyrimidin-4-yl)-1h-pyrrole-2-formamide, reference compound] | 252 nM |  | 
3 | COC[C@H]1Cn2cc(-c3cc(NC(C)C)ncc3Cl)cc2C(=O)N1Cc1cc(F)ccc1CO [Example 34, (R)-7-(5-chloro-2-(isopropylamino)pyridin-4-yl)-2-(5-fluoro-2-(hydroxymethyl)benzyl)-3-(methoxymethyl)-3,4-dihydropyrrolo[1,2-a]pyrazine-1(2H)-one] |  | 0.2 nM | 0.4 nM
4 | COC[C@H]1Cn2cc(-c3cc(NC4COC(C)(C)C4)ncc3Cl)cc2C(=O)N1Cc1cc(F)ccc1CO (stereo partly drawn) [Example 79, (3R)-7-(5-chloro-2-((5,5-dimethyltetrahydrofuran-3-yl)amino)pyridine-4-yl)-2-(5-fluoro-2-(hydroxymethyl)benzyl)-3-(methoxymethyl)-3,4-dihydropyrrolo[1,2-a] pyrazine-1(2H)-one] |  | 0.36 nM | 0.39 nM
5 | CC(C)Nc1cc(-c2cnc(C(=O)NCc3ccc(F)cc3CO)s2)c(Cl)cn1 [Example 4, 5-(5-chloro-2-(isopropylamino)pyridin-4-yl)-N-(4-fluoro-2-(hydroxymethyl)benzyl) thiazole-2-formamide] |  | 1.8 nM | 1.8 nM
6 | CC(C)Nc1cc(-c2cc3n(c2)CC2(CN(C)C2)CN(Cc2ccccc2CO)C3=O)c(Cl)cn1 [Example 25] |  | 1.3 nM | 0.84 nM
7 | Cc1cnc(Nc2ccccc2)nc1-c1cc2n(c1)CCN(Cc1cc(F)ccc1CO)C2=O [Example 137, 2-(5-fluoro-2-(hydroxymethyl)benzyl)-7-(5-methyl-2-(phenylamino)pyrimidin-4-yl)-3,4-dihydropyrrolo[1,2-a] pyrazine-1(2H)-one] |  | 2.7 nM | 0.6 nM
8 | COC[C@H]1Cn2cc(-c3cc(NC4CC(F)(F)C4)ncc3Cl)cc2C(=O)N1Cc1cc(F)ccc1CO [Example 63, (R)-7-(5-chloro-2-((3,3-difluorocyclobutyl)amino)pyridine-4-yl)-2-(5-fluoro-2-(hydroxymethyl)benzyl)-3-(methoxymethyl)-3,4-dihydropyrrolo[1,2-a] pyrazine-1(2H)-one] |  | 1.5 nM | 1.6 nM
9 | CC(C)Nc1cc(-c2cnc(C(=O)NCc3ccccc3CO)s2)c(Cl)cn1 [Example 3, 5-(5-chloro-2-(isopropylamino)pyridin-4-yl)-N-(2-(hydroxymethyl)benzyl) thiazole-2-formamide] |  | 0.9 nM | 0.7 nM
10 | COC[C@H]1Cn2cc(-c3cc(NCC(C)(C)O)ncc3Cl)cc2C(=O)N1Cc1cc(F)ccc1CO [Example 65, (R)-7-(5-chloro-2-((2-hydroxy-2-methylpropyl)amino)pyridine-4-yl)-2-(5-fluoro-2-(hydroxymethyl)benzyl)-3-(methoxymethyl)-3,4-dihydropyrrolo[1,2-a] pyrazine-1(2H)-one] |  | 0.97 nM | 1.6 nM
11 | COC[C@H]1Cn2cc(-c3cc(NC4CCC(OC)CC4)ncc3Cl)cc2C(=O)N1Cc1cc(F)ccc1CO (stereo partly drawn) [Example 111, (R)-7-(5-chloro-2-((4-methoxycyclohexyl)amino)pyridine-4-yl)-2-(5-fluoro-2-(hydroxymethyl)benzyl)-3-(methoxymethyl)-3,4-dihydropyrrolo[1,2-a] pyrazine-1(2H)-one] |  | 0.9 nM | 0.9 nM

Next, values leading:

Row | IC50 (COLO205 cells) | IC50 (ERK1) | IC50 (ERK2) | Structure (SMILES)
12 | 24.4 nM |  |  | COC[C@H]1Cn2cc(-c3cc(Nc4c(F)cnn4C)ncc3Cl)cc2C(=O)N1Cc1cc(F)ccc1CO [Example 51, (R)-7-(5-chloro-2-((4-fluoro-1-methyl-1H-pyrazol-5-yl)amino)pyridin-4-yl)-2-(5-fluoro-2-(hydroxymethyl)benzyl)-3-(methoxymethyl)-3,4-dihydropyrrolo[1,2-a]pyrazine-1(2H)-ketone]
13 |  | 0.38 nM | 0.41 nM | COC[C@H]1Cn2cc(-c3cc(NC4CCOC4)ncc3Cl)cc2C(=O)N1Cc1cc(F)ccc1CO (stereo partly drawn) [Example 61, (3R)-7-(5-chloro-2-((tetrahydrofuran-3-yl)amino)pyridine-4-yl)-2-(5-fluoro-2-(hydroxymethyl)benzyl)-3-(methoxymethyl)-3,4-dihydropyrrolo[1,2-a] pyrazine-1(2H)-one]
14 |  | 1.2 nM | 1 nM | COC[C@H]1Cn2cc(-c3cc(NC(=O)c4csc(C)n4)ncc3Cl)cc2C(=O)N1Cc1cc(F)ccc1CO [Example 117, (R)-N-(5-chloro-4-(2-(5-fluoro-2-(hydroxymethyl)benzyl)-3-(methoxymethyl)-1-oxo-1,2,3,4-tetrahydropyrrolo [1,2-a]pyrazin-7-yl)pyridine-2-yl)-2-methylthiazol-4-formamide]
15 |  | 0.95 nM | 0.64 nM | COCC1(CO)CN(Cc2cc(F)ccc2CO)C(=O)c2cc(-c3cc(NC(C)C)ncc3Cl)cn2C1 (stereo not shown) [Example 56, 8-(5-chloro-2-(isopropylamino)pyridin-4-yl)-2-(5-fluoro-2-(hydroxymethyl)benzyl)-4-(hydroxymethyl)-4-(methoxymethyl)-2,3,4,5-4,5-tetrahydro-1h-pyrrolo [1,2-a][1,4]diazepine-1-one]
16 |  | 0.7 nM | 0.6 nM | CC(C)Nc1cc(-c2cc3n(c2)CCN(Cc2ccccc2CO)C3=O)c(Cl)cn1 [Example 14, 7-(5-chloro-2-(isopropylamino)pyridin-4-yl)-2-(2-(hydroxymethyl)benzyl)-3,4-dihydropyrrolo[1,2-a] pyrazine-1(2H)-one]
17 |  | 0.87 nM | 1.5 nM | COC[C@H]1Cn2cc(-c3cc(NC4CCOC(C)(C)C4)ncc3Cl)cc2C(=O)N1Cc1cc(F)ccc1CO (stereo partly drawn) [Example 78, (3R)-7-(5-chloro-2-((2,2-dimethyltetrahydro-2h-pyran-4-yl)amino)pyridine-4-yl)-2-(5-fluoro-2-(hydroxymethyl)benzyl)-3-(methoxymethyl)-3,4-dihydropyrrolo[1,2-a] pyrazine-1(2H)-one]
18 |  | 1.6 nM | 1.2 nM | COC[C@H]1Cn2cc(-c3ccnc(NC4CCOCC4)c3)cc2C(=O)N1Cc1cc(F)ccc1CO [Example 67, (R)-2-(5-fluoro-2-(hydroxymethyl)benzyl)-3-(methoxymethyl)-7-(2-((tetrahydro-2h-pyran-4-yl)amino)pyridine-4-yl)-3,4-dihydropyrrolo [1,2-a]pyrazine-1(2H)-one]
19 |  | 0.73 nM | 0.68 nM | COC[C@H]1Cn2cc(-c3cc(Nc4cc(C)on4)ncc3Cl)cc2C(=O)N1Cc1cc(F)ccc1CO [Example 80, (R)-7-(5-chloro-2-((5-Methylisoxazole-3-yl)amino)pyridine-4-yl)-2-(5-fluoro-2-(hydroxymethyl)benzyl)-3-(methoxymethyl)-3,4-dihydropyrrolo[1,2-a] pyrazine-1(2H)-one]
20 |  | 0.54 nM | 0.46 nM | COC[C@H]1Cn2cc(-c3cc(NC4COC4)ncc3Cl)cc2C(=O)N1Cc1cc(F)ccc1CO [Example 60, (R)-7-(5-chloro-2-(oxacyclobutane-3-ylamino)pyridine-4-yl)-2-(5-fluoro-2-(hydroxymethyl)benzyl)-3-(methoxymethyl)-3,4-dihydropyrrolo[1,2-a] pyrazine-1(2H)-one]
21 |  | 0.8 nM | 0.9 nM | CCc1ccccc1Nc1ncc(C)c(-c2cc3n(c2)CCN(Cc2cc(F)ccc2CO)C3=O)n1 [Example 132, 7-(2-((2-Ethylphenyl)amino)-5-methylpyrimidin-4-yl)-2-(5-fluoro-2-(hydroxymethyl)benzyl)-3,4-dihydropyrrolo[1,2-a] pyrazine-1(2H)-one]
22 |  | 1.1 nM | 1.5 nM | COC[C@H]1Cn2cc(-c3cc(NC4CCCC4)ncc3Cl)cc2C(=O)N1Cc1cc(F)ccc1CO [Example 77, (R)-7-(5-chloro-2-(cyclopentylamino)pyridin-4-yl)-2-(5-fluoro-2-(hydroxymethyl)benzyl)-3-(methoxymethyl)-3,4-dihydropyrrolo[1,2-a] pyrazine-1(2H)-one]
23 |  | 0.9 nM | 0.4 nM | Cc1cnc(Nc2cccc(C)c2C)nc1-c1cc2n(c1)CCN(Cc1cc(F)ccc1CO)C2=O [Example 136, 7-(2-((2,3-dimethylphenyl)amino)-5-methylpyrimidin-4-yl)-2-(5-fluoro-2-(hydroxymethyl)benzyl)-3,4-dihydropyrrolo[1,2-a] pyrazine-1(2H)-one]
